According to ChEMBL document CHEMBL1149059, “Biological activity of some coumarins from Sri Lankan Rutaceae” (J Nat Prod, 1994):
Converted amounts (≈) assume the structure as drawn.

Experiments:
Saccharomyces cerevisiae [1] = experiment: DNA damaging activity against DNA repair-deficient yeast rad 52Y assessed as drug level required to produce 12 mm zone of inhibition; format: functional
Vero = experiment: Cytotoxicity against african green monkey Vero cells after 7 days by XTT assay; format: cell-based; conditions: Chlorocebus sabaeus, 168 h
Saccharomyces cerevisiae [2] = experiment: DNA damaging activity against DNA repair-proficient yeast RAD+ assessed as drug level required to produce 12 mm zone of inhibition; format: functional
Saccharomyces cerevisiae [3] = experiment: DNA damaging activity against DNA repair-deficient yeast rad 52 assessed as drug level required to produce 12 mm zone of inhibition; format: functional
Saccharomyces cerevisiae [4] = experiment: DNA damaging activity against DNA repair-deficient yeast rad 6 assessed as drug level required to produce 12 mm zone of inhibition; format: functional

Compound | IC12 (Saccharomyces cerevisiae [1]) | IC50 (Vero) | IC12 (Saccharomyces cerevisiae [2]) | IC12 (Saccharomyces cerevisiae [3]) | IC12 (Saccharomyces cerevisiae [4])
CC1(C)C=Cc2c(ccc3ccc(=O)oc23)O1 [SESALIN] | 87 µg/mL | 12 µg/mL (≈ 52.6 µM) | 220 µg/mL | 33 µg/mL | 480 µg/mL
CC[C@@]1(O)C(=O)OCc2c1cc1n(c2=O)Cc2cc3ccccc3nc2-1 [CAMPTOTHECIN] |  | 0.02 µg/mL (≈ 0.0574 µM) | 110 µg/mL | 0.6 µg/mL | 8.7 µg/mL
CC1(C)C=Cc2cc3ccc(=O)oc3cc2O1 [XANTHYLETIN] | 87 µg/mL | > 20 µg/mL | 21 µg/mL | 52 µg/mL | 318 µg/mL
